Measurements: ChEMBL document CHEMBL5724914, “Linking interpersonal differences in gut microbiota composition and drug biotransformation activity” (2024)

test: (§1) The drug is tested on Z-004 corresponding to metagenome with ENA study accession number: PRJEB37062 and ENA sample accession number: ERS12561804 for biotransformation under anaerobic condition. The drug concentrations were measured over 9 timepoints collected between 0 and 24 hours of incubation by liquid-chromatography-coupled mass spectrometry (LC–MS); conditions: 2 µM
Further: call rule not given here.

Bacterial Biotransformation | SMILES
Compound metabolized | CN[C@H]1CC[C@@H](c2ccc(Cl)c(Cl)c2)c2ccccc21 [SERTRALINE]
Compound NOT metabolized | CCCCCNC(=N)N/N=C/c1c[nH]c2ccc(OC)cc12.O=C(O)/C=C\C(=O)O [TEGASEROD MALEATE]

test: (§2) The drug is tested on WLS-350 corresponding to human gut metagenome with ENA study accession number: PRJEB37062 and ENA sample accession number: ERS12561789 for biotransformation under anaerobic condition. The drug concentrations were measured over 9 timepoints collected between 0 and 24 hours of incubation by liquid-chromatography-coupled mass spectrometry (LC–MS); conditions: 2 µM

Bacterial Biotransformation | SMILES
Compound NOT metabolized | CN[C@H]1CC[C@@H](c2ccc(Cl)c(Cl)c2)c2ccccc21 [SERTRALINE]
Compound NOT metabolized | CCCCCNC(=N)N/N=C/c1c[nH]c2ccc(OC)cc12.O=C(O)/C=C\C(=O)O [TEGASEROD MALEATE]

test: as §1, with “Z-023” for “Z-004”, “ERS12561822” for “ERS12561804”; conditions: 2 µM

Bacterial Biotransformation | SMILES
Compound metabolized | C#C[C@]1(OC(C)=O)CC[C@H]2[C@@H]3CCC4=CC(=O)CC[C@@H]4[C@H]3CC[C@@]21C [NORETHINDRONE ACETATE]
Compound metabolized | CN[C@H]1CC[C@@H](c2ccc(Cl)c(Cl)c2)c2ccccc21 [SERTRALINE]
Compound metabolized | CCCCCNC(=N)N/N=C/c1c[nH]c2ccc(OC)cc12.O=C(O)/C=C\C(=O)O [TEGASEROD MALEATE]

test: as §2, with “Z-007” for “WLS-350”, “rat” for “human”, “ERS12561807” for “ERS12561789”; conditions: 2 µM

Bacterial Biotransformation | SMILES
Compound NOT metabolized | CN[C@H]1CC[C@@H](c2ccc(Cl)c(Cl)c2)c2ccccc21 [SERTRALINE]
Compound NOT metabolized | CCCCCNC(=N)N/N=C/c1c[nH]c2ccc(OC)cc12.O=C(O)/C=C\C(=O)O [TEGASEROD MALEATE]

test: as §2, with “WLS-073” for “WLS-350”, “ERS12561749” for “ERS12561789”; conditions: 2 µM

Bacterial Biotransformation | SMILES
Compound metabolized | C#C[C@]1(OC(C)=O)CC[C@H]2[C@@H]3CCC4=CC(=O)CC[C@@H]4[C@H]3CC[C@@]21C [NORETHINDRONE ACETATE]
Compound metabolized | CCCCCNC(=N)N/N=C/c1c[nH]c2ccc(OC)cc12.O=C(O)/C=C\C(=O)O [TEGASEROD MALEATE]

conditions: human gut metagenome, 24 h, 2 µM

Bacterial Biotransformation | SMILES
Compound NOT metabolized | C#C[C@]1(OC(C)=O)CC[C@H]2[C@@H]3CCC4=CC(=O)CC[C@@H]4[C@H]3CC[C@@]21C [NORETHINDRONE ACETATE]
Compound NOT metabolized | CN[C@H]1CC[C@@H](c2ccc(Cl)c(Cl)c2)c2ccccc21 [SERTRALINE]

conditions: human gut metagenome, 24 h, 2 µM; remark: another data set of the same source

Bacterial Biotransformation | SMILES
Compound metabolized | C#C[C@]1(OC(C)=O)CC[C@H]2[C@@H]3CCC4=CC(=O)CC[C@@H]4[C@H]3CC[C@@]21C [NORETHINDRONE ACETATE]
Compound metabolized | CN[C@H]1CC[C@@H](c2ccc(Cl)c(Cl)c2)c2ccccc21 [SERTRALINE]
Compound NOT metabolized | CCCCCNC(=N)N/N=C/c1c[nH]c2ccc(OC)cc12.O=C(O)/C=C\C(=O)O [TEGASEROD MALEATE]

conditions: human gut metagenome, 24 h, 2 µM; remark: another data set of the same source

Bacterial Biotransformation | SMILES
Compound metabolized | CN[C@H]1CC[C@@H](c2ccc(Cl)c(Cl)c2)c2ccccc21 [SERTRALINE]

test: as §2, with “Z-013” for “WLS-350”, “rabbit” for “human”, “ERS12561813” for “ERS12561789”; conditions: 2 µM

Bacterial Biotransformation | SMILES
Compound metabolized | C#C[C@]1(OC(C)=O)CC[C@H]2[C@@H]3CCC4=CC(=O)CC[C@@H]4[C@H]3CC[C@@]21C [NORETHINDRONE ACETATE]
Compound NOT metabolized | CN[C@H]1CC[C@@H](c2ccc(Cl)c(Cl)c2)c2ccccc21 [SERTRALINE]
Compound NOT metabolized | CCCCCNC(=N)N/N=C/c1c[nH]c2ccc(OC)cc12.O=C(O)/C=C\C(=O)O [TEGASEROD MALEATE]

test: as §2, with “WLS-052” for “WLS-350”, “ERS12561747” for “ERS12561789”; conditions: 2 µM

Bacterial Biotransformation | SMILES
Compound metabolized | C#C[C@]1(OC(C)=O)CC[C@H]2[C@@H]3CCC4=CC(=O)CC[C@@H]4[C@H]3CC[C@@]21C [NORETHINDRONE ACETATE]
Compound metabolized | CN[C@H]1CC[C@@H](c2ccc(Cl)c(Cl)c2)c2ccccc21 [SERTRALINE]
Compound metabolized | CCCCCNC(=N)N/N=C/c1c[nH]c2ccc(OC)cc12.O=C(O)/C=C\C(=O)O [TEGASEROD MALEATE]

test: as §2, with “Z-022” for “WLS-350”, “mouse” for “human”, “ERS12561821” for “ERS12561789”; conditions: 2 µM

Bacterial Biotransformation | SMILES
Compound metabolized | C#C[C@]1(OC(C)=O)CC[C@H]2[C@@H]3CCC4=CC(=O)CC[C@@H]4[C@H]3CC[C@@]21C [NORETHINDRONE ACETATE]
Compound NOT metabolized | CN[C@H]1CC[C@@H](c2ccc(Cl)c(Cl)c2)c2ccccc21 [SERTRALINE]
Compound NOT metabolized | CCCCCNC(=N)N/N=C/c1c[nH]c2ccc(OC)cc12.O=C(O)/C=C\C(=O)O [TEGASEROD MALEATE]

conditions: human gut metagenome, 24 h, 2 µM; remark: another data set of the same source

Bacterial Biotransformation | SMILES
Compound metabolized | C#C[C@]1(OC(C)=O)CC[C@H]2[C@@H]3CCC4=CC(=O)CC[C@@H]4[C@H]3CC[C@@]21C [NORETHINDRONE ACETATE]
Compound metabolized | CN[C@H]1CC[C@@H](c2ccc(Cl)c(Cl)c2)c2ccccc21 [SERTRALINE]
Compound NOT metabolized | CCCCCNC(=N)N/N=C/c1c[nH]c2ccc(OC)cc12.O=C(O)/C=C\C(=O)O [TEGASEROD MALEATE]

test: as §2, with “WLS-010” for “WLS-350”, “ERS12561743” for “ERS12561789”; conditions: 2 µM

Bacterial Biotransformation | SMILES
Compound metabolized | C#C[C@]1(OC(C)=O)CC[C@H]2[C@@H]3CCC4=CC(=O)CC[C@@H]4[C@H]3CC[C@@]21C [NORETHINDRONE ACETATE]
Compound NOT metabolized | CCCCCNC(=N)N/N=C/c1c[nH]c2ccc(OC)cc12.O=C(O)/C=C\C(=O)O [TEGASEROD MALEATE]

conditions: human gut metagenome, 24 h, 2 µM; remark: another data set of the same source

Bacterial Biotransformation | SMILES
Compound metabolized | CN[C@H]1CC[C@@H](c2ccc(Cl)c(Cl)c2)c2ccccc21 [SERTRALINE]
Compound NOT metabolized | CCCCCNC(=N)N/N=C/c1c[nH]c2ccc(OC)cc12.O=C(O)/C=C\C(=O)O [TEGASEROD MALEATE]

conditions: human gut metagenome, 24 h, 2 µM; remark: another data set of the same source

Bacterial Biotransformation | SMILES
Compound metabolized | CN[C@H]1CC[C@@H](c2ccc(Cl)c(Cl)c2)c2ccccc21 [SERTRALINE]
Compound NOT metabolized | CCCCCNC(=N)N/N=C/c1c[nH]c2ccc(OC)cc12.O=C(O)/C=C\C(=O)O [TEGASEROD MALEATE]

conditions: human gut metagenome, 24 h, 2 µM; remark: another data set of the same source

Bacterial Biotransformation | SMILES
Compound NOT metabolized | CN[C@H]1CC[C@@H](c2ccc(Cl)c(Cl)c2)c2ccccc21 [SERTRALINE]
Compound metabolized | CCCCCNC(=N)N/N=C/c1c[nH]c2ccc(OC)cc12.O=C(O)/C=C\C(=O)O [TEGASEROD MALEATE]

test: as §2, with “Z-006” for “WLS-350”, “mouse” for “human”, “ERS12561806” for “ERS12561789”; conditions: 2 µM

Bacterial Biotransformation | SMILES
Compound metabolized | C#C[C@]1(OC(C)=O)CC[C@H]2[C@@H]3CCC4=CC(=O)CC[C@@H]4[C@H]3CC[C@@]21C [NORETHINDRONE ACETATE]
Compound NOT metabolized | CN[C@H]1CC[C@@H](c2ccc(Cl)c(Cl)c2)c2ccccc21 [SERTRALINE]
Compound NOT metabolized | CCCCCNC(=N)N/N=C/c1c[nH]c2ccc(OC)cc12.O=C(O)/C=C\C(=O)O [TEGASEROD MALEATE]

test: as §2, with “Z-009” for “WLS-350”, “pig” for “human”, “ERS12561809” for “ERS12561789”; conditions: 2 µM

Bacterial Biotransformation | SMILES
Compound metabolized | C#C[C@]1(OC(C)=O)CC[C@H]2[C@@H]3CCC4=CC(=O)CC[C@@H]4[C@H]3CC[C@@]21C [NORETHINDRONE ACETATE]
Compound metabolized | CN[C@H]1CC[C@@H](c2ccc(Cl)c(Cl)c2)c2ccccc21 [SERTRALINE]
Compound metabolized | CCCCCNC(=N)N/N=C/c1c[nH]c2ccc(OC)cc12.O=C(O)/C=C\C(=O)O [TEGASEROD MALEATE]

test: as §2, with “Z-025” for “WLS-350”, “rabbit” for “human”, “ERS12561824” for “ERS12561789”; conditions: 2 µM

Bacterial Biotransformation | SMILES
Compound metabolized | C#C[C@]1(OC(C)=O)CC[C@H]2[C@@H]3CCC4=CC(=O)CC[C@@H]4[C@H]3CC[C@@]21C [NORETHINDRONE ACETATE]
Compound metabolized | CN[C@H]1CC[C@@H](c2ccc(Cl)c(Cl)c2)c2ccccc21 [SERTRALINE]

conditions: human gut metagenome, 24 h, 2 µM; remark: another data set of the same source

Bacterial Biotransformation | SMILES
Compound NOT metabolized | CN[C@H]1CC[C@@H](c2ccc(Cl)c(Cl)c2)c2ccccc21 [SERTRALINE]
Compound metabolized | CCCCCNC(=N)N/N=C/c1c[nH]c2ccc(OC)cc12.O=C(O)/C=C\C(=O)O [TEGASEROD MALEATE]
